The results in this text go back to patent publication US20080312192A1, “Diaryl Urea Derivatives in the Treatment of Protein Kinase Dependent Diseases” (priority 2003, published 2008).

Molecules are shown by their SMILES.

For this experiment, the target named is T1, RET (Homo sapiens, UniProt P07949).
T1 construct: expresses the amino acid region 658-1072 (Swiss prot No. Q9BTB0); made in house; host or cells: Sf9 insect cells (baculovirus, vector pFB-GSTX3)
T1 sequence (P07949 658-1072 isoform P07949-2): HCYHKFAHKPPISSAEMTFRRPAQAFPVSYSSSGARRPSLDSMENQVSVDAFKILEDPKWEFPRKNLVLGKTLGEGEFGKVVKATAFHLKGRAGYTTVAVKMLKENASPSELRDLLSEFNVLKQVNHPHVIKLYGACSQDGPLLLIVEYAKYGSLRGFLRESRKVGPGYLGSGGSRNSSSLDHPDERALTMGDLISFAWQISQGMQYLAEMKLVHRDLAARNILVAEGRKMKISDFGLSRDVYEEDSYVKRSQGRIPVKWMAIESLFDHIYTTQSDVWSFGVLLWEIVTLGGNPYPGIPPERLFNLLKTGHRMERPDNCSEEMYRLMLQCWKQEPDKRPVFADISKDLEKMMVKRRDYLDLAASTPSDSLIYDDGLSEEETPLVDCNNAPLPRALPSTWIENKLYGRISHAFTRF
Description: RET kinase inhibition (33P incorporation into poly(Glu,Tyr), GST-wtRET or GST-RET-Men2B). Type of experiment: biochemical. How it is done:
RET kinase inhibition is determined as follows:
The coding sequence for the cytoplasmic domain of wtRET is amplified by PCR from a cDNA library using specific primers. RET-Men2B is generated through site-directed mutagenesis resulting in the M918T mutation. The amplified DNA fragments and the pFB-GSTX3 vector are made compatible for ligation by digestion with SalI and KpnI. Ligation of these DNA fragments results in the baculovirus donor plasmids […] and pFB-GX3-RET-Men2B, respectively.
Production of virus: The baculovirus donor plasmids containing the kinase domains are transfected into the DH10Bac cell line (GIBCO) and the transfected cells are plated on selective agar plates. Colonies without insertion of the fusion sequence into the viral genome (carried by the bacteria) are blue. Single, white colonies are picked and viral DNA (bacmid) is isolated from the bacteria by standard plasmid purification procedures. Sf9 cells or Sf21 cells (American Type Culture Collection) are then transfected in 25 cm^2 flasks with the viral DNA using Cellfectin reagent.
Protein expression in Sf9 cells: Virus-containing media is collected from the transfected cell culture and used for infection to increase its titer. Virus-containing media obtained after two rounds of infection is used for large-scale protein expression. For large-scale protein expression 100 cm^2 round tissue culture plates are seeded with 5×10^7 cells/plate and infected with 1 mL of virus-containing media (approximately 5 MOIs). After 3 days, the cells are scraped off the plate and centrifuged at 500 rpm for 5 minutes. Cell pellets from 10-20, 100 cm^2 plates are re-suspended in 50 mL of ice-cold lysis buffer (25 mM Tris-HCl, pH 7.5, 2 mM EDTA, 1% NP-40, 1 mM DTT, 1 mM PMSF). The cells are stirred on ice for 15 minutes and then centrifuged at 5,000 rpms for 20 minutes.
Purification of GST-tagged proteins: The centrifuged cell lysate is loaded onto a 2 mL glutathione-sepharose column (Pharmacia) and washed 3× with 10 mL of 25 mM Tris-HCl, pH 7.5, 2 mM EDTA, 1 mM DTT, 200 mM NaCl. The GST-tagged proteins are then eluted by 10 applications (1 mL each) of 25 mM Tris-HCl, pH 7.5, 10 mM reduced-glutathione, 100 mM NaCl, 1 mM DTT, 10% glycerol and stored at −70° C.
Measure of enzyme activity: Tyrosine protein kinase assays with either purified GST-wtRET or GST-RET-Men2B protein are carried out in a final volume of 30 μL containing 15 ng of either GST-RET or GST-RET-Men2B protein, 20 mM Tris-HCl, pH 7.5, 1 mM MnCl2, 10 mM MgCl2, 1 mM DTT, 3 μg/mL poly(Glu, Tyr) 4:1, 1% DMSO, 2.0 μM ATP (γ-[^33P]-ATP 0.1 μCi). The activity is assayed in the presence or absence of inhibitors, by measuring the incorporation of ^33P from [γ^33P] ATP into poly(Glu, Tyr) 4:1. […] Subsequently, 40 μL of the reaction mixture are transferred onto Immobilon-PVDF membrane (Millipore) previously soaked for 5 minutes with methanol, rinsed with water, then soaked for 5 minutes with 0.5% H3PO4 and mounted on vacuum manifold with disconnected vacuum source. After spotting all samples, vacuum is connected and each well rinsed with 200 μL 0.5% H3PO4. Membranes are removed and washed 4× on a shaker with 1.0% H3PO4, once with ethanol. Membranes are counted after drying at ambient temperature, mounting in Packard TopCount 96-well frame, and addition of 10 μl/well of Microscint™ (Packard). […] One unit of protein kinase activity is defined as 1 nmole of ^33P transferred from [γ^33P] ATP to the substrate protein/minute/mg of protein at 37° C.
On to `Nc1cc(Oc2ccc(NC(=O)Nc3cc(CN4CCC4)cc(C(F)(F)F)c3)cc2)ncn1` [Example 4, N-[4-(6-Amino-pyrimidin-4-yloxy)-phenyl]-N′-(3-azetidin-1-ylmethyl-5-trifluoromethyl-phenyl)-urea], for which the IC50 amounted to 83 nM.
Under `CNc1cc(Oc2ccc(NC(=O)Nc3cc(CN4CCN(C(C)C)CC4)cc(C(F)(F)F)c3)cc2)ncn1` [Example 6, N-[4-(6-Methylamino-pyrimidin-4-yloxy)-phenyl]-N′-[3-(4-isopropylpiperazin-1-ylmethyl)-5-trifluoromethyl-phenyl]-urea] stands 960 nM; under `CC(C)N1CCN(Cc2ccc(NC(=O)Nc3ccc(Oc4cc(N)ncn4)cc3)cc2C(F)(F)F)CC1` [Example 19, N-[4-(6-Amino-pyrimidin-4-yloxy)-phenyl]-N′-[4-(4-isopropylpiperazin-1-ylmethyl)-3-trifluoromethyl-phenyl]-urea], 550 nM.
Then `CC(C)(C)N1CCN(Cc2ccc(NC(=O)Nc3ccc(Oc4ccnc(N)n4)cc3)cc2C(F)(F)F)CC1` [Example 50], with 560 nM.
With `Cc1ncn(Cc2ccc(NC(=O)Nc3ccc(Oc4ccnc(N)n4)cc3)cc2C(F)(F)F)c1C` [Example 51a.1, 1-[4-(2-Amino-pyrimidin-4-yloxy)-phenyl]-3-(4-(4,5-dimethyl-imidazol-1-ylmethyl)-3-trifluoromethyl-phenyl]-urea], inhibition was half-maximal at 850 nM (IC50).
Then `CN1CCN(Cc2ccc(NC(=O)Nc3ccc(Oc4ccnc(N)n4)cc3)cc2C(F)(F)F)CC1` [Example 52a, 1-[4-(2-amino-pyrimidin-4-yloxy)-phenyl]-3-[4-(4-methylpiperazin-1-ylmethyl)-3-trifluoromethyl-phenyl]-urea], with 180 nM; and `CCN1CCN(Cc2ccc(NC(=O)Nc3ccc(Oc4ccnc(N)n4)cc3)cc2C(F)(F)F)CC1` [Example 52c, 1-[4-(2-Amino-pyrimidin-4-yloxy)-phenyl]-3-[4-(4-ethyl-piperazin-1-ylmethyl)-3-trifluoromethyl-phenyl]-urea], with 310 nM; and `CNc1nccc(Oc2ccc(NC(=O)Nc3cc(N4CCN(C)CC4)cc(C(F)(F)F)c3)cc2)n1` [Example 53b, 1-[4-(2-Methylamino-pyrimidin-4-yloxy)-phenyl]-3-[3-(4-methyl-piperazin-1-yl)-5-trifluoromethyl-phenyl]-urea], with 450 nM.
Under `CNc1nccc(Oc2ccc(NC(=O)Nc3ccc(N4CCN(C)CC4)c(C(F)(F)F)c3)cc2)n1` [Example 53d, 1-[4-(2-Methylamino-pyrimidin-4-yloxy)-phenyl]-3-[4-(4-methyl-piperazin-1-yl)-3-trifluoromethyl-phenyl]-urea] stands 450 nM.

The IC50 is the concentration that gives 50% inhibition.
